This note sets out measurements from PubChem BioAssay (NCI).

Among the test systems are SNB-19 CNS; SF-268 CNS; KM12 colon; OVCAR-8 ovarian; TK-10 renal; MDA-MB-435; HOP-92 NSCLC; M14 melanoma; U251 CNS; A498 renal.
Holding throughout (test): NCI-60 cell line screen, 48 h

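Cultured in 96-well plates, cells were exposed to test compound for 48 hours across five concentrations. Here, GI50 denotes the concentration required for 50% inhibition of growth. At the TGI there is no net growth.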

As for `Nc1cccc(S(=O)(=O)Nc2nnc(S(N)(=O)=O)s2)c1`, the TGI with SNB-19 CNS, in the test with SF-268 CNS, with KM12 colon, with OVCAR-8 ovarian, in the test on TK-10 renal and in the test with MDA-MB-435 was greater than 100 µM throughout. Besides, the TGI with HOP-92 NSCLC, with M14 melanoma, in the test with U251 CNS and in the test on A498 renal was greater than 100 µM each time.
For the compound `COc1ccccc1N=Nc1c(O)c(S(=O)(=O)O)cc2cc(S(=O)(=O)O)ccc12`, the TGI in the test with SNB-19 CNS, in the test on SF-268 CNS, in the test with KM12 colon, with OVCAR-8 ovarian, with TK-10 renal and in the test on MDA-MB-435 was greater than 100 µM each time. Also, the TGI in the test with HOP-92 NSCLC, in the test with M14 melanoma, with U251 CNS and in the test with A498 renal was greater than 100 µM throughout.
Regarding `Cc1nc2n(c1/C=C1/C(=O)Nc3ccccc31)CCS2`, the TGI with SNB-19 CNS was greater than 100 µM; with SF-268 CNS, greater than 100 µM; with KM12 colon, greater than 100 µM; in the test on OVCAR-8 ovarian it was greater than 100 µM; in the test with TK-10 renal, greater than 100 µM; with MDA-MB-435, 36.1 µM. The TGI in the test on HOP-92 NSCLC, in the test with M14 melanoma, in the test on U251 CNS and with A498 renal was greater than 100 µM each time.
Consider `CO[C@H]1O[C@@H]2CO[C@@H](c3ccccc3)O[C@H]2[C@@H]2C/C=C\CCC[C@@]12O`, for which the TGI with SNB-19 CNS was greater than 100 µM; in the test with SF-268 CNS, 43.3 µM; in the test on KM12 colon it was 54.9 µM; in the test on OVCAR-8 ovarian, greater than 100 µM; in the test on TK-10 renal, greater than 100 µM; with MDA-MB-435, 52.9 µM. For the same compound, the TGI in the test with HOP-92 NSCLC was 43.7 µM; in the test with M14 melanoma, 45.9 µM; in the test on U251 CNS, 40.2 µM; in the test on A498 renal, 29 µM.
On to `Cn1c([C@H](C#N)C(=O)c2cc(O)ccc2[N+](=O)[O-])nc2ccccc21`, for which the TGI in the test on SNB-19 CNS, in the test on SF-268 CNS, in the test with KM12 colon, in the test with OVCAR-8 ovarian, with TK-10 renal and in the test on MDA-MB-435 was greater than 100 µM each time. For the same compound, the TGI in the test with HOP-92 NSCLC, with M14 melanoma, in the test with U251 CNS and in the test with A498 renal was greater than 100 µM each time.
Turning to `CC(C)(O)C1CC[C@]2(C)[C@H]3CC[C@@H]4[C@@]5(C)CCCC(C)(C)[C@@H]5CC[C@@]4(C)[C@]3(C)CC[C@@H]12` (stereo not given in full), the TGI in the test with SNB-19 CNS, in the test on SF-268 CNS, in the test with KM12 colon, in the test on OVCAR-8 ovarian, in the test with TK-10 renal and in the test on MDA-MB-435 was greater than 100 µM in each case. The TGI with HOP-92 NSCLC, in the test on M14 melanoma, with U251 CNS and in the test with A498 renal was greater than 100 µM in each case.
With `C=C(C)C1CC/C(C)=C/CC[C@]2(C)O[C@@H]2CCC2=CC1OC2=O` (stereo not given in full), the GI50 in the test with SNB-19 CNS is greater than 100 µM; in the test with SF-268 CNS it was greater than 100 µM; in the test with KM12 colon it was 21.6 µM; with OVCAR-8 ovarian, greater than 100 µM; in the test on TK-10 renal, 15.7 µM; in the test with MDA-MB-435 it was 49.4 µM. For the same compound, the GI50 is 14.4 µM with HOP-92 NSCLC, 37.2 µM with M14 melanoma, 21.7 µM with U251 CNS and 23.2 µM in the test on A498 renal. In addition, the TGI in the test with SNB-19 CNS, with SF-268 CNS, with KM12 colon, in the test with OVCAR-8 ovarian, with TK-10 renal and in the test with MDA-MB-435 was greater than 100 µM in each case. The TGI in the test with HOP-92 NSCLC, in the test on M14 melanoma, in the test with U251 CNS and in the test with A498 renal was greater than 100 µM each time.
In the case of `Cc1ccc(NC2=NCCO2)c2c1CCC2`, the TGI is greater than 100 µM in the test with SNB-19 CNS; greater than 100 µM in the test on SF-268 CNS; 63.9 µM with KM12 colon; greater than 100 µM in the test with OVCAR-8 ovarian; greater than 100 µM in the test with TK-10 renal; 46.2 µM in the test with MDA-MB-435. Besides, the TGI in the test with HOP-92 NSCLC was 70 µM; in the test with M14 melanoma, 57 µM; in the test with U251 CNS, greater than 100 µM; in the test on A498 renal it was greater than 100 µM.
For the compound `O=Nn1c2ccccc2c2cc([N+](=O)[O-])ccc21`, the TGI is 58.1 µM in the test with SNB-19 CNS; 32.7 µM in the test on SF-268 CNS; 42 µM in the test with KM12 colon; 31.6 µM in the test with OVCAR-8 ovarian; 32.1 µM in the test with TK-10 renal; 32.8 µM with MDA-MB-435. Moreover, the TGI in the test on HOP-92 NSCLC came out at 29.8 µM; with M14 melanoma, 47.9 µM; in the test on U251 CNS, 33.1 µM; with A498 renal, 26.9 µM.
For `O=c1[nH]c(=O)n(COCCO)c2ccsc12`, the TGI with SNB-19 CNS, with SF-268 CNS, in the test with KM12 colon, with OVCAR-8 ovarian, in the test with TK-10 renal and with MDA-MB-435 was greater than 100 µM each time. Besides, the TGI in the test with HOP-92 NSCLC, with M14 melanoma, in the test on U251 CNS and in the test with A498 renal was greater than 100 µM throughout.
For `COc1ccc(C(Cc2ccccc2)C2NC(=S)NC2=O)cc1` (stereo not given), the TGI in the test with SNB-19 CNS, in the test on SF-268 CNS, with KM12 colon, in the test with OVCAR-8 ovarian, with TK-10 renal and with MDA-MB-435 was greater than 25 µM each time. Besides, the TGI in the test on HOP-92 NSCLC, with M14 melanoma, in the test with U251 CNS and in the test on A498 renal was greater than 25 µM each time.
As for `COC(=O)CCc1c(Cc2ccc[nH]2)[nH]c(C(=O)OCc2ccccc2)c1C`, the TGI in the test on SNB-19 CNS was 85.8 µM; in the test with SF-268 CNS it was 53.7 µM; in the test with KM12 colon, 35.7 µM; with OVCAR-8 ovarian, 52.5 µM; in the test on TK-10 renal it was 76.2 µM; in the test on MDA-MB-435, 32.6 µM. The TGI in the test on HOP-92 NSCLC is 51.4 µM; with M14 melanoma it was 30.4 µM; in the test with U251 CNS, 44.1 µM; in the test on A498 renal, 62.8 µM.
For the compound `NC(Cc1c[nH]c2cc([N+](=O)[O-])ccc12)C(=O)O` (stereo not given), the TGI with SNB-19 CNS, in the test with SF-268 CNS, in the test with KM12 colon, with OVCAR-8 ovarian, with TK-10 renal and with MDA-MB-435 was greater than 100 µM in each case. The TGI with HOP-92 NSCLC, in the test with M14 melanoma, in the test on U251 CNS and in the test with A498 renal was greater than 100 µM each time.
As to `COC(=O)c1c(C)cccc1C1CN=NC12Cc1ccc(C)c(C)c1C2=O` (stereo not given), the TGI in the test with SNB-19 CNS, in the test on SF-268 CNS, in the test with KM12 colon, in the test on OVCAR-8 ovarian, in the test with TK-10 renal and in the test with MDA-MB-435 was greater than 100 µM each time. Besides, the TGI in the test on HOP-92 NSCLC is greater than 100 µM; in the test on M14 melanoma, 96.2 µM; with U251 CNS, greater than 100 µM; in the test on A498 renal it was greater than 100 µM.
For `CCOC(=O)c1c(C)nc2c(c1-c1cn(-c3ccccc3)nc1-c1ccccc1)C(=O)c1ccccc1-2`, the TGI in the test on SNB-19 CNS, in the test with SF-268 CNS, in the test with KM12 colon, in the test with OVCAR-8 ovarian, in the test on TK-10 renal and in the test with MDA-MB-435 was greater than 100 µM each time. Moreover, the TGI with HOP-92 NSCLC, in the test on M14 melanoma, in the test on U251 CNS and with A498 renal was greater than 100 µM each time.
In the case of `Cc1ccc(S(=O)(=O)[C@@H](Cl)[C@H]2N=C(Cl)NN=C2c2ccccc2)cc1`, the TGI in the test with SNB-19 CNS was greater than 100 µM; with SF-268 CNS, 38.8 µM; with KM12 colon, 50 µM; with OVCAR-8 ovarian, 44.6 µM; in the test with TK-10 renal, greater than 100 µM; with MDA-MB-435, 51.4 µM. The TGI in the test with HOP-92 NSCLC was determined as 54.3 µM; with M14 melanoma it was 42.6 µM; in the test on U251 CNS, 55.9 µM; with A498 renal it was 35.7 µM.
On to `COc1ccc(C2OCCN2C)cc1` (stereo not given), for which the TGI in the test on SNB-19 CNS, in the test on SF-268 CNS, in the test with KM12 colon, with OVCAR-8 ovarian, in the test with TK-10 renal and in the test on MDA-MB-435 was greater than 100 µM throughout. Moreover, the TGI with HOP-92 NSCLC, in the test with M14 melanoma, in the test on U251 CNS and in the test with A498 renal was greater than 100 µM in each case.
In the case of `O=S(=O)(O)c1cccc2cccc(N=Nc3c(O)ccc4ccccc34)c12`, the TGI in the test with SNB-19 CNS, in the test with SF-268 CNS, with KM12 colon, with OVCAR-8 ovarian, in the test on TK-10 renal and in the test on MDA-MB-435 was greater than 100 µM each time. Besides, the TGI with HOP-92 NSCLC, in the test with M14 melanoma, in the test with U251 CNS and in the test on A498 renal was greater than 100 µM each time.
Regarding `CCOc1ccc(N=NC2C(=O)N(C(=O)CC(=O)Nc3ccccc3)N=C2C)cc1` (stereo not given), the TGI in the test with SNB-19 CNS is greater than 100 µM; in the test on SF-268 CNS, greater than 100 µM; in the test on KM12 colon, greater than 100 µM; in the test on OVCAR-8 ovarian it was greater than 100 µM; with TK-10 renal, greater than 100 µM; in the test with MDA-MB-435, 23.8 µM. For the same compound, the TGI in the test with HOP-92 NSCLC was 90.7 µM; with M14 melanoma, greater than 100 µM; with U251 CNS, greater than 100 µM; with A498 renal, greater than 100 µM.
